Read-outs that look alike come from different tables or passages of the source.
What was measured:
[1] = test system: MV4:11 human cancer cell lines; experiment: Cellular viability / anti-proliferative assay, CellTiter-Glo, 5 day protocol; assay type: cell-based; settings: Homo sapiens, MV4-11, 120 h, read-out: GI50 on cellular proliferation of MV4:11 human cancer cell lines
Outline: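 Luminescent ATP-based viability (CellTiter-Glo) after a 5-day exposure gave GI50 via sigmoidal fitting, averaged over two or more replicates. Compounds spanned 22 two-fold steps down from 30 μM at 0.3% DMSO, on 200 MV-4-11 cells per well grown in IMDM plus 10% FBS.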

WDR5 = WDR5 (Homo sapiens, UniProt P61964); experiment: TR-FRET competition binding assay, displacement of 10mer-Thr-FAM MLL peptide probe from His-tagged WDR5; settings: WDR5-His tag (residues 24-334) 2 nM; 10mer-Thr-FAM 150 nM; 60 min, room temperature; read-out: Ki for Inhibition of WDR5 by TR-FRET assay
[2] = MV4:11 cells, 5 day incubation, CellTiter-Glo, mean of at least two replicates

Row | GI50 [1, 2] | Ki (WDR5) | SMILES | GI50 [1]
1 | 28 nM | 0.02 nM | CCc1cc(COC)c2nc(C)cc(N3CCc4c(cc(Cn5ccnc5)cc4-c4cn(C)nc4C(F)(F)F)C3=O)c2c1 [Example 156, 7-((1H-Imidazol-1-yl)methyl)-2-(6-ethyl-8-(methoxymethyl)-2-methylquinolin-4-yl)-5-(1-methyl-3-(trifluoromethyl)-1H-pyrazol-4-yl)-3,4-dihydroisoquinolin-1(2H)-one] | –
2 | < 20 nM | 0.03 nM | CCc1cc(N2CCN3CCOC[C@H]3C2)c2nc(C)cc(N3CCc4c(cc(Cn5ccnc5)cc4-c4cn(C)nc4C(F)(F)F)C3=O)c2c1 [Example 124, (R)-7-((1H-Imidazol-1-yl)methyl)-2-(6-ethyl-8-(hexahydropyrazino[2,1-c][1,4]oxazin-8(1H)-yl)-2-methylquinolin-4-yl)-5-(1-methyl-3-(trifluoromethyl)-1H-pyrazol-4-yl)-3,4-dihydroisoquinolin-1(2H)-one] | –
3 | 191 nM | 0.025 nM | Cc1ccc2cncc(N3CCc4c(cc(Cc5cn(C)cn5)cc4-c4cn(C)nc4C(F)(F)F)C3=O)c2c1 [Example 58, 6′-Methyl-7-((1-methyl-1H-imidazol-4-yl)methyl)-5-(1-methyl-3-(trifluoromethyl)-1H-pyrazol-4-yl)-3,4-dihydro-1H-[2,4′-biisoquinolin]-1-one] | –
4 | 38 nM | < 0.02 nM | CCc1cc(-c2cnn(C)c2)c2nccc(N3CCc4c(cc(Cn5ccnc5)cc4-c4cn(C)nc4C(F)(F)F)C3=O)c2c1 [Example 232, 7-((1H-Imidazol-1-yl)methyl)-2-(6-ethyl-8-(1-methyl-1H-pyrazol-4-yl)quinolin-4-yl)-5-(1-methyl-3-(trifluoromethyl)-1H-pyrazol-4-yl)-3,4-dihydroisoquinolin-1(2H)-one] | –
5 | < 20 nM | 0.023 nM | COc1cc(Br)c2nc(C)cc(N3CCc4c(cc(Cn5ccnc5)cc4-c4cn(C)nc4C(F)(F)F)C3=O)c2c1 [Example 101, 7-((1H-imidazol-1-yl)methyl)-2-(8-bromo-6-methoxy-2-methylquinolin-4-yl)-5-(1-methyl-3-(trifluoromethyl)-1H-pyrazol-4-yl)-3,4-dihydroisoquinolin-1(2H)-one] | –
6 | < 20 nM | < 0.02 nM | CCc1cc(C(=O)Nc2ncco2)c2nccc(N3CCc4c(cc(Cn5ccnc5)cc4-c4cn(C)nc4C(F)(F)F)C3=O)c2c1 [Example 160, 4-(7-((1H-Imidazol-1-yl)methyl)-5-(1-methyl-3-(trifluoromethyl)-1H-pyrazol-4-yl)-1-oxo-3,4-dihydroisoquinolin-2(1H)-yl)-6-ethyl-N-(oxazol-2-yl)quinoline-8-carboxamide] | –
7 | < 20 nM | 0.04 nM | COc1cc(N2CCN(C)CC2)c2cncc(N3CCc4c(cc(Cn5ccnc5)cc4-c4cn(C)nc4C(F)(F)F)C3=O)c2c1 [Example 123, 7-((1H-Imidazol-1-yl)methyl)-6′-methoxy-5-(1-methyl-3-(trifluoromethyl)-1H-pyrazol-4-yl)-8′-(4-methylpiperazin-1-yl)-3,4-dihydro-1H-[2,4′-biisoquinolin]-1-one] | –
8 | < 20 nM | < 0.02 nM | CCc1cc(-c2cncnc2)c2nccc(N3CCc4c(cc(Cn5ccnc5)cc4-c4cn(C)nc4C(F)(F)F)C3=O)c2c1 [Example 96, 7-((1H-Imidazol-1-yl)methyl)-2-(6-ethyl-8-(pyrimidin-5-yl)quinolin-4-yl)-5-(1-methyl-3-(trifluoromethyl)-1H-pyrazol-4-yl)-3,4-dihydroisoquinolin-1(2H)-one] | –
9 | < 20 nM | < 0.02 nM | CCc1cc(C(=O)NCC2CN(C(=O)c3cscn3)C2)c2nccc(N3CCc4c(cc(Cn5ccnc5)cc4-c4cn(C)nc4C(F)(F)F)C3=O)c2c1 [Example 220, 4-(7-((1H-Imidazol-1-yl)methyl)-5-(1-methyl-3-(trifluoromethyl)-1H-pyrazol-4-yl)-1-oxo-3,4-dihydroisoquinolin-2(1H)-yl)-6-ethyl-N-((1-(thiazole-4-carbonyl)azetidin-3-yl)methyl)quinoline-8-carboxamide] | –
10 | 29 nM | 0.026 nM | COc1cc(C)c2nccc(N3CCc4c(cc(Cn5ccnc5C)cc4-c4cn(C)nc4C(F)(F)F)C3=O)c2c1 [Example 7, 2-(6-Methoxy-8-methylquinolin-4-yl)-7-((2-methyl-1H-imidazol-1-yl)methyl)-5-(1-methyl-3-(trifluoromethyl)-1H-pyrazol-4-yl)-3,4-dihydroisoquinolin-1(2H)-one] | –
11 | < 20 nM | < 0.02 nM | COc1cnc2c(c1)c(N1CCc3c(cc(Cn4ccnc4C)cc3-c3cn(C)nc3C(F)(F)F)C1=O)cn2C [Example 79, 2-(5-Methoxy-1-methyl-1H-pyrrolo[2,3-b]pyridin-3-yl)-7-((2-methyl-1H-imidazol-1-yl)methyl)-5-(1-methyl-3-(trifluoromethyl)-1H-pyrazol-4-yl)-3,4-dihydroisoquinolin-1(2H)-one] | –
12 | < 20 nM | < 0.02 nM | COCc1cc(OC)cc2c(N3CCc4c(cc(Cn5ccnc5)cc4-c4cn(C)nc4C(F)(F)F)C3=O)ccnc12 [Example 136, 7-((1H-Imidazol-1-yl)methyl)-2-(6-methoxy-8-(methoxymethyl)quinolin-4-yl)-5-(1-methyl-3-(trifluoromethyl)-1H-pyrazol-4-yl)-3,4-dihydroisoquinolin-1(2H)-one] | –
13 | < 20 nM | < 0.02 nM | CCc1cc(C(=O)NC2CN(C(=O)c3cscn3)C2)c2nccc(N3CCc4c(cc(Cn5ccnc5)cc4-c4cn(C)nc4C(F)(F)F)C3=O)c2c1 [Example 228, 4-(7-((1H-Imidazol-1-yl)methyl)-5-(1-methyl-3-(trifluoromethyl)-1H-pyrazol-4-yl)-1-oxo-3,4-dihydroisoquinolin-2(1H)-yl)-6-ethyl-N-(1-(thiazole-4-carbonyl)azetidin-3-yl)quinoline-8-carboxamide] | –
14 | 35 nM | < 0.02 nM | CCc1cc(C(=O)NCCNC(C)=O)c2nccc(N3CCc4c(cc(Cn5ccnc5)cc4-c4cn(C)nc4C(F)(F)F)C3=O)c2c1 [Example 212, 4-(7-((1H-Imidazol-1-yl)methyl)-5-(1-methyl-3-(trifluoromethyl)-1H-pyrazol-4-yl)-1-oxo-3,4-dihydroisoquinolin-2(1H)-yl)-N-(2-acetamidoethyl)-6-ethylquinoline-8-carboxamide] | –
15 | 97 nM | 0.031 nM | Cc1ccc2cncc(N3CCc4c(cc(Cc5ncc[nH]5)cc4-c4cn(C)nc4C(F)(F)F)C3=O)c2c1 [Example 56, 7-((1H-Imidazol-2-yl)methyl)-6′-methyl-5-(1-methyl-3-(trifluoromethyl)-1H-pyrazol-4-yl)-3,4-dihydro-1H-[2,4′-biisoquinolin]-1-one] | –

Row | SMILES | GI50 [1, 2] | Ki (WDR5) | GI50 [1]
16 | CCc1cc(OC)c2cncc(N3CCc4c(cc(Cn5ccnc5)cc4-c4cn(C)nc4C(F)(F)F)C3=O)c2c1 [Example 116, 7-((1H-Imidazol-1-yl)methy)-6′-ethyl-8-methoxy-5-(1-methyl-3-(trifluoromethyl)-1H-pyrazol-4-yl)-3,4-dihydro-1H-[2,4′-biisoquinolin]-one] | – | 0.028 nM | < 20 nM

— patent US12692249B2, “WDR5 inhibitors and modulators” (Vanderbilt University, priority 2019, dated 2026)
